{
  "source": "ChEMBL document CHEMBL1146288",
  "about": "“Thiosialoside clusters using carbosilane dendrimer core scaffolds as a new class of influenza neuraminidase inhibitors” (Bioorg Med Chem Lett, 2007)",
  "key": {"[1]": {"assay": "Inhibition of influenza A virus A/PR/8/34(H1N1)) sialidase"}, "[2]": {"assay": "Inhibition of influenza A virus A/Memphis/1/71(H3N2)) sialidase", "set-up": "species or system Influenza A virus (A/Memphis/1/1971(H3N2))"}},
  "data": [
    {"smiles": "CC(=O)N[C@@H]1[C@@H]([C@H](O)[C@H](O)CO)O[C@](SCCCCCOCCCSCCC[Si](CCCSCCCOCCCCCS[C@@]2(C(=O)O)C[C@@H](O)[C@H](NC(C)=O)[C@@H]([C@H](O)[C@H](O)CO)O2)(CCCSCCCOCCCCCS[C@@]2(C(=O)O)C[C@@H](O)[C@H](NC(C)=O)[C@@H]([C@H](O)[C@H](O)CO)O2)CCC[Si](C)(C)CCC[Si](CCCSCCCOCCCCCS[C@@]2(C(=O)O)C[C@@H](O)[C@H](NC(C)=O)[C@@H]([C@H](O)[C@H](O)CO)O2)(CCCSCCCOCCCCCS[C@@]2(C(=O)O)C[C@@H](O)[C@H](NC(C)=O)[C@@H]([C@H](O)[C@H](O)CO)O2)CCCSCCCOCCCCCS[C@@]2(C(=O)O)C[C@@H](O)[C@H](NC(C)=O)[C@@H]([C@H](O)[C@H](O)CO)O2)(C(=O)O)C[C@H]1O", "values": [
      {"measurement": "IC50", "setting": "[1]", "result": 5, "unit": "mM"},
      {"measurement": "IC50", "setting": "[2]", "result": 1.25, "unit": "mM"}
    ]},
    {"smiles": "CC(=O)N[C@@H]1[C@@H]([C@H](O)[C@H](O)CO)O[C@](SCCCCCOCCCSCCC[Si](CCCSCCCOCCCCCS[C@@]2(C(=O)O)C[C@@H](O)[C@H](NC(C)=O)[C@@H]([C@H](O)[C@H](O)CO)O2)(CCCSCCCOCCCCCS[C@@]2(C(=O)O)C[C@@H](O)[C@H](NC(C)=O)[C@@H]([C@H](O)[C@H](O)CO)O2)c2ccccc2)(C(=O)O)C[C@H]1O", "values": [
      {"measurement": "IC50", "setting": "[1]", "result": 5, "unit": "mM"},
      {"measurement": "IC50", "setting": "[2]", "result": 5, "unit": "mM"}
    ]},
    {"smiles": "CC(=O)N[C@@H]1[C@@H]([C@H](O)[C@H](O)CO)O[C@](SCCCCCOCCCSCCC[Si](CCCSCCCOCCCCCS[C@@]2(C(=O)O)C[C@@H](O)[C@H](NC(C)=O)[C@@H]([C@H](O)[C@H](O)CO)O2)(CCCSCCCOCCCCCS[C@@]2(C(=O)O)C[C@@H](O)[C@H](NC(C)=O)[C@@H]([C@H](O)[C@H](O)CO)O2)CCCSCCCOCCCCCS[C@@]2(C(=O)O)C[C@@H](O)[C@H](NC(C)=O)[C@@H]([C@H](O)[C@H](O)CO)O2)(C(=O)O)C[C@H]1O", "values": [
      {"measurement": "IC50", "setting": "[1]", "result": 5, "unit": "mM"},
      {"measurement": "IC50", "setting": "[2]", "result": 5, "unit": "mM"}
    ]}
  ]
}
